Where two headings read alike, the source gives them in different places.
Experiments:
Format in all cases: in vivo
[1] = test system: brown stink bugs, Euschistus heros; assay: Field spray and mesh cage test with bifenthrin, average mortality at 1, 2, 4, and 7 days; settings: 1, 2, 4, and 7 days after treatment
Procedure: Two emulsifying concentrate pesticidal compositions with a weight ratio of compound I to bifenthrin of 1:1 were prepared. The first comprising 0.0167 weight % of compound I and about 0.0167 weight % of bifenthrin and the second comprising 0.0333 weight % compound I and 0.0333 weight % bifenthrin. The compositions were diluted and applied to the field using a spray volume of […]. The application was done using a CO2 backpack sprayer with a solid cone nozzle TXVK-8 (ConeJet). Plants were allowed to air dry and then were placed in a mesh cage where different instar stink bugs were infested in two different trials (3rd and 4th nymphal stage, and adults). Average stink bug mortality was assessed at 1, 2, 4, and 7 days after application counting the number of dead insects and calculating the percent control based on the survivorship in the untreated treatment.
The average percent control of the pesticidal composition against brown stink bugs, Euschistus heros, was determined as the “Average Observed” action, and compared to the average of those obtained by using about 0.0167 weight %, 0.0333 weight %, and 0.0667 weight % of compound I alone, and the average of those obtained using about 0.0167 weight % and 0.0333 weight % of bifenthrin alone. The “Colby's Expected Action” was calculated using Colby's equation as discussed previously. […]

[2] = test system: brown stink bug, Euschistus heros; assay: Bean piece dip bioassay, third-instar nymphs; settings: Compound I alone, 0.04 weight %
Procedure: The active compounds were formulated in a 10% acetone solution with 0.025% non-ionic surfactant, TWEEN® 20. Bioassays were performed for each different active solution. Bean pieces (about one inch-long) were used for the tests. Four bean pieces were placed in each tested active solution and left there for 10 minutes. Bean pieces were taken out of the active solution, and each piece was placed in a well in a 32-well tray and allowed to air dry. Three third-instar nymphs of brown stink bug, Euschistus heros, were infested into each well. The percent control of the pesticidal composition against brown stink bug, Euschistus heros, was determined as the “Observed” action, and compared to those obtained by using about 0.04 weight % of compound I, and using about 0.0025 weight % of lambda-cyhalothrin alone. The “Colby's Expected Action” was calculated using Colby's equation as discussed previously.

[3] = test system: brown stink bug, Euschistus servus (Say); assay: Field test, backpack sprayer, natural stink bug infestation; settings: Compound I alone
Procedure: (§1) Dyne-Amic at 0.625% V/V was used as an adjuvant in the tank mix, and the application was done using a backpack sprayer. Trial was conducted under a natural stink bug infestation. Numbers of adults and nymphs were counted four days after application in 1.82 meters of row per plot using a shake sheet (0.91 meters by 2 rows).
(§2) The “Colby's Expected Action” was calculated using Colby's equation as discussed previously.
as §2, §2

[4] = test system: green stink bugs, Nezara viridula; assay: as above; settings: Compound I alone, 0.0306 weight %
Procedure: as §1, §2

[5] = test system: brown stink bugs, Euschistus heros; assay: Field spray and mesh cage test with alpha-cypermethrin, average mortality at 1 and 3 days; settings: 1 and 3 days after treatment
Procedure: Two emulsifying concentrate pesticidal compositions with a weight ratio of compound I to alpha-cypermethrin of 1:1 were prepared. The first comprising 0.0167 weight % of compound I and about 0.0167 weight % of alpha-cypermethrin and the second comprising 0.0333 weight % compound I and 0.0333 weight % alpha-cypermethrin. The compositions were diluted and applied to the field using a spray volume of […]. The application was done using a CO2 backpack sprayer with a solid cone nozzle TXVK-8 (ConeJet). Plants were allowed to air dry and then were placed in a mesh cage where different instar stink bugs were infested (3rd and 4th nymphal stage, and adults). Average stink bug mortality was assessed at 1 and 3 days after application counting the number of dead insects and calculating the percent control based on the survivorship in the untreated.
The average percent control of the pesticidal composition against brown stink bugs, Euschistus heros, was determined as the “Average Observed” action, and compared to the average of those obtained by using about 0.0167 weight %, 0.0333 weight %, and 0.0667 weight % of compound I alone, and the average of those obtained using about 0.0167 weight % and 0.0333 weight % of alpha-cypermethrin alone. The “Colby's Expected Action” was calculated using Colby's equation as discussed previously. […]

[6] = test system: Western flower thrips, Frankliniella occidentalis (Pergande); assay: Cotton leaf punch dip bioassay, mortality of nymphs; settings: Compound II alone, 0.04 weight %; Example 5
Procedure: The active compounds were formulated in a 10% acetone solution with 0.025% non-ionic surfactant, TWEEN® 20. Cotton leaf punches were used for bioassays. Two cotton leaf punches were placed in each solution and left there for 10 minutes. Leaves were taken out of the solution, placed on a piece of filter paper in separated Petri dishes, and air dried. Each leaf disc was considered a repetition. Five nymph of Western flower thrips, Frankliniella occidentalis, were infested per repetition. The assessment of mortality was done three days after infestation. The percent control of the pesticidal composition Western flower thrips, Frankliniella occidentalis (Pergande), was determined as the “Observed” action, and compared to those obtained by using about 0.04 weight % of compound II, and using about 0.02 weight % of lambda-cyhalothrin alone. The “Colby's Expected Action” was calculated using Colby's equation as discussed previously.
The active compounds were formulated in a 10% acetone solution with 0.025% non-ionic surfactant, TWEEN® 20. Cotton leaf punches were used for bioassays. Two cotton leaf punches were placed in each solution and left there for 10 minutes. Leaves were taken out of the solution, placed on a piece of filter paper in separated Petri dishes, and air dried. Each leaf disc was considered a repetition. […]

[7] = test system: brown stink bug, Euschistus heros; assay: Diet treatment bioassay, second-instar nymphs; settings: Compound II alone, 0.04 weight %
[8] = test system: Lygus bug, Lygus hesperus (Knight); assay: Treated string bean bioassay, four-day old nymphs; settings: Compound II alone, 0.04 weight %
Procedure: String beans were treated with different active compounds for ten minutes. Three four-day old nymphs of Lygus bug, Lygus hesperus (Knight), were infested onto each bean sample.

[9] = test system: stink bugs (Edessa meditabunda, Euschistus heros, and Piezodorus guildinii); settings: Compound II alone, field test
Procedure: […] Silwet L-77 at 0.1% V/V was used as an adjuvant in the tank mix, and the application was done using a CO2 backpack sprayer. Trial was conducted under a natural stink bug infestation. […] The stink bug population consisted on about 75% Edessa meditabunda, 20% of Euschistus heros, and 5% Piezodorus guildinii.
This was about 48% improvement over the Colby's expected action.

[10] = Compound I alone (1:0), average of 0.0167, 0.0333 and 0.0667 weight %

Cc1c(COC(=O)[C@@H]2[C@H](/C=C(\Cl)C(F)(F)F)C2(C)C)cccc1-c1ccccc1 (racemic) [Bifenthrin, bifenthrin, reference compound]
Average % Control ([1]; Bifenthrin alone (0:1), average of 0.0167 and 0.0333 weight %): 41.6%

CCN(C(=O)CCSCCC(F)(F)F)c1cn(-c2cccnc2)nc1Cl [Compound I, N-(3-chloro-1-(pyridin-3-yl)-1H-pyrazol-4-yl)-N-ethyl-3-((3,3,3-trifluoropropyl)thio)propanamide]
% Control Four Days After Treatment [2]: 17%
% Control Four Days After Treatment ([3]; 0.0306 weight %): 15.15%
% Control Four Days After Treatment ([3]; 0.0459 weight %): 15.15%
% Control Four Days After Treatment ([4]; Example 11A): 7.39%
% Control Four Days After Treatment ([4]; Example 11B): 11.94%
Average % Control [1, 10]: 9.34%
Average % Control [5, 10]: 6.93%

CCN(C(=O)CC[S+]([O-])CCC(F)(F)F)c1cn(-c2cccnc2)nc1Cl (stereo not drawn) [Compound II, N-(3-chloro-1-(pyridin-3-yl)-1H-pyrazol-4-yl)-N-ethyl-3-((3,3,3-trifluoropropyl)sulfinyl)propanamide]
% Control Three Days After Treatment [6]: 20%
% Control After Six Days of Treatment [7]: 0%
% Control Five Days After Treatment [8]: 25%
% Control Three Days After Treatment ([9]; 0.10 weight %): 12.5%
% Control Three Days After Treatment ([9]; 0.13 weight %): 18.8%
% Control Three Days After Treatment ([9]; 0.20 weight %): 6.3%

CC1(C)C(C=C(Cl)Cl)C1C(=O)OC(C#N)c1cccc(Oc2ccccc2)c1 (stereo not drawn) [alpha-Cypermethrin, alpha-cypermethrin, reference compound]
Average % Control ([5]; alpha-Cypermethrin alone (0:1), average of 0.0167 and 0.0333 weight %): 21.1%

Source: US9788546B2, “Synergistic pesticidal compositions and related methods” (DOW AGROSCIENCES LLC, priority 2013, dated 2017)
